Reference: ChEMBL document CHEMBL1154585, “Lorneamides A and B: two new aromatic amides from a southern Australian marine actinomycete” (2000)

Tested on: Bacillus subtilis
Test: Antibacterial activity against Bacillus subtilis
Type: functional

Question: For CCCC(O)/C=C/c1cc(C)ccc1/C=C/CC(N)=O (stereo unspecified) [LORNEAMIDE A], which LD99 is on record?
Answer: 50 µg/mL
